# Experiments:
# lactate = assay: Lactate levels in skeletal muscle of treated mice; assay type: in vivo; conditions: 6- and 22-month-old mice; NMN one week
# Description: (§1) C57BL/6J mice of 6, 22, or 30 months of age were obtained from the National Institutes of Aging mouse aging colony. Additionally 22 months old caloric restricted mice were also obtained from the National Institutes of Aging mouse aging colony. EGLN1 KO, SIRT1 KO and SIRT1 OE mice were generated as previously described (Minamishima et al., 2008; Price et al., 2012). Mice were acclimated for at least one-week prior to sacrifice. 3, 6, 22 and 24-month-old mice were given interperitoneal (IP) injections of 500 mg NMN/kg body weight per day or the equivalent volume of PBS for 7 consecutive days at 5:00 pm and 7:00 am on day 8 and sacrificed 4 hr after last injection.
# C57BL/6J mice of 3, 6, 22, or 24 months of age were obtained from the National Institutes of Aging mouse aging colony. Additionally 22 months old caloric restricted mice were also obtained from the National Institutes of Aging mouse aging colony. Mice were acclimated for at least one-week prior to sacrifice. 3, 6, 22 and 24-month-old mice were given interperitoneal (IP) injections of 500 mg NMN/kg body weight per day or the equivalent volume of PBS for 7 consecutive days at 5:00 pm and 7:00 am on day 8 and sacrificed 4 hr after last injection. […]
# Lactate from skeletal muscle was quantified with a commercially available kit (BioVision) according to the manufacturer's instructions.
# Atrogin-1 and MuRF1 = assay: Immunoblot for muscle wasting markers in gastrocnemius of treated mice; assay type: in vivo; conditions: old (22-month) mice; NMN one week; skeletal muscle
# Description: as §1
# (§2) Protein extracts from tissue or C2C12 cells were obtained by lysis in ice-cold lysis buffer (150 mM NaCl, 10 mM Tris HCl (pH 7.4), 1 mM EDTA, 1 mM EGTA, 1% Triton X-100, 0.5% NP-40) supplemented with a cocktail of protease and phosphatase inhibitors (Roche). Protein content was determined by the Bradford protein assay (Biorad), and 50 μg proteins were run on SDS-PAGE under reducing conditions. The separated proteins were then electrophoretically transferred to a polyvinylidene difluoride membrane (Perkin-Elmer). […] The immunostaining was detected using horseradish peroxidase-conjugated anti-rabbit or anti-mouse immunoglobulin for 1 h at room temperature.
# HIF-1α = assay: Immunoblot of HIF-1α in PGC-1α/β KO myotubes; assay type: cell-based, mouse; conditions: PGC-1α/β knockout myotubes treated with DMOG
# Experimental: Primary myoblasts cells were isolated from WT, SIRT1 KO (Price et al., 2012) and PGC-1α/β KO (Zechner et al., 2010) mice as previously described (Price et al., 2012). WT and PGC-1α/β KO primary myoblasts were plated and allowed to differentiate into myotubes by replacing the media with low glucose DMEM supplemented with 2% horse serum (Sigma-Aldrich) for 4 days. After the differentiation the cells were infected with empty vector or flag-SIRT1 adenovirus as described before (Gerhart-Hines et al., 2007). Media was replaced with fresh DMEM supplemented with 2% horse serum (Sigma-Aldrich) for an additional 48 hr and, after that the cells were harvested for the different assays as described. […]
# as §2, with “conditions.” for “conditions. The separated proteins were then electrophoretically transferred to a polyvinylidene difluoride membrane (Perkin-Elmer).”
# C2C12 myoblasts = assay: mtDNA content and ETC gene expression in C2C12 myoblasts; assay type: cell-based, mouse; conditions: C2C12 myoblasts treated with DMOG, 16 h
# Experimental: C2C12 cell line (ATCC) was cultured in low glucose Dulbecco's modified eagle medium (DMEM) (Invitrogen) supplemented with 10% FBS (Invitrogen) and a mix of antibiotic and antimycotic (Invitrogen). To inhibit SIRT1, cells were treated the vehicle (0.001% DMSO) or 10 μM EX-527 (Tocris) for 12 h. C2C12 myoblasts were infected with an empty or SIRT1 adenovirus as described before (Gerhart-Hines et al., 2007) and the media was replaced with fresh DMEM for additional 48 h, after that the cells were treated as described before. To test the effects of hypoxia and HIFα stabilization in genome asyncrony, C2C12 myoblasts were exposed to 1% oxygen for 16 h or treated with the vehicle (0.001% DMSO) or DMOG (Cayman) for the same period of time.
# RNA from skeletal muscle tissue and C2C12 cells were extracted with RNeasy mini kit (Qiagen) according to the instructions and quantified using the NanoDrop 1000 spectrophotometer (Thermo Scientific). cDNA was synthesized with the iSCRIP cDNA synthesis kit (BioRad) using 600 ng of RNA. Quantitative RT-PCR reactions were performed using 1 μM of primers and LightCycler® 480 SYBR Green Master (Roche) on an LightCycler® 480 detection system (Roche). Calculations were performed by a comparative method (2-ΔCT) using 18S as an internal control. For mtDNA analysis, total DNA was extracted with DNeasy blood and tissue kit (Qiagen). mtDNA was amplified using primers specific for the mitochondrial cytochrome c oxidase subunit 2 (COX2) gene and normalized to genomic DNA by amplification of the ribosomal protein s18 (rps18) nuclear gene. Primers were designed using the IDT software (IDT) and the primer sequences can be found in Table 1.
Structure (SMILES),lactate levels in the skeletal muscle (lactate),muscle wasting markers Atrogin-1 and MuRF1 (Atrogin-1 and MuRF1),HIF-1α protein (HIF-1α),expression of mitochondrially-encoded ETC genes (C2C12 myoblasts),expression of nuclear-encoded ETC components (C2C12 myoblasts),mtDNA content (C2C12 myoblasts)
"NC(=O)c1ccc[n+]([C@@H]2O[C@H](COP(=O)([O-])O)[C@@H](O)[C@H]2O)c1 [NMN, nicotinamide mononucleotide]",suppressed the increase in lactate levels,completely reversed these markers,,,,
"COC(=O)CNC(=O)C(=O)OC [DMOG, dimethyloxaloylglycine]",,,stabilizes HIF-1α protein,specific decline,not the nuclear-encoded components,specific decline in mtDNA content

# Source: patent US9877981B2, “NAD biosynthesis and precursors for the treatment and prevention of cancer and proliferation” (President and Fellows of Harvard College, priority 2012, dated 2018)
